Data reported in ChEMBL document CHEMBL3351465, “Discovery of functionalized bisimidazoles bearing cyclic aliphatic-phenyl motifs as HCV NS5A inhibitors” (Bioorg Med Chem Lett, 2014).
Converted amounts (≈) assume the structure as drawn. Each block holds one molecule with its values, some of them ahead of it.

Columns and labels:
[1] = Inhibition of HCV genotype-1a NS5A; parameters: species or system Hepatitis C virus subtype 1a
[2] = Inhibition of HCV genotype-1b NS5A; parameters: species or system Hepatitis C virus subtype 1b
[3] = Inhibition of NS5A in HCV genotype-1b infected in human HuH7 cells by luciferase reporter gene assay; assay type: cell-based, Hepatitis C virus subtype 1b; settings: Hepatitis C virus, Huh-7
[4] = Inhibition of NS5A in HCV genotype-1a infected in human HuH7 cells by luciferase reporter gene assay; assay type: cell-based, Hepatitis C virus subtype 1a; settings: Hepatitis C virus, Huh-7
[5] = Half life in Sprague-Dawley rat at 2 mg/kg, iv; assay type: ADME, organism-based; parameters: dose 2 mg/kg, route intravenous; settings: in vivo
[6] = Plasma concentration in Sprague-Dawley rat at 10 mg/kg, po after 4 hrs; assay type: ADME, organism-based; parameters: dose 10 mg/kg, route oral
[7] = Drug uptake in Sprague-Dawley rat liver at 10 mg/kg, po after 4 hrs; assay type: ADME, organism-based; parameters: dose 10 mg/kg, route oral; settings: read-out: Drug uptake
[8] = Oral bioavailability in Sprague-Dawley rat at 10 mg/kg; assay type: ADME, organism-based; settings: in vivo
[9] = Clearance in Sprague-Dawley rat at 2 mg/kg, iv; assay type: ADME, organism-based; parameters: dose 2 mg/kg, route intravenous; settings: in vivo
[10] = Tmax in Sprague-Dawley rat at 10 mg/kg, po; assay type: ADME, organism-based; parameters: dose 10 mg/kg, route oral; settings: in vivo
[11] = AUClast in Sprague-Dawley rat at 10 mg/kg, po; assay type: ADME, organism-based; parameters: time 0 - last, dose 10 mg/kg, route oral; settings: plasma
[12] = Volume of distribution at steady state in Sprague-Dawley rat at 2 mg/kg, iv; assay type: ADME, organism-based; parameters: dose 2 mg/kg, route intravenous; settings: in vivo, read-out: Vdss
[13] = AUClast in Sprague-Dawley rat at 2 mg/kg, iv; assay type: ADME, organism-based; parameters: time 0 - last, dose 2 mg/kg, route intravenous; settings: plasma
[14] = Cmax in Sprague-Dawley rat at 10 mg/kg, po; assay type: ADME, organism-based; parameters: dose 10 mg/kg, route oral; settings: in vivo
[15] = Solubility of the compound at pH 7.4 by UV detection method; assay type: physicochemical; settings: buffer
[16] = AUClast in Sprague-Dawley rat at 5 mg/kg, po; assay type: ADME, organism-based; parameters: time 0 - last, dose 5 mg/kg, route oral; settings: plasma
[17] = Cmax in Sprague-Dawley rat at 5 mg/kg, po; assay type: ADME, organism-based; parameters: dose 5 mg/kg, route oral; settings: in vivo
[18] = Plasma concentration in Sprague-Dawley rat […] at 5 mg/kg, po after 4 hrs; assay type: ADME, organism-based; parameters: dose 5 mg/kg, route oral
[19] = Tmax in Sprague-Dawley rat at 5 mg/kg, po; assay type: ADME, organism-based; parameters: dose 5 mg/kg, route oral; settings: in vivo
[20] = Drug uptake in Sprague-Dawley rat liver at 5 mg/kg, po after 4 hrs; assay type: ADME, organism-based; parameters: dose 5 mg/kg, route oral; settings: read-out: Drug uptake
[21] = AUClast in Sprague-Dawley rat at 1 mg/kg, iv; assay type: ADME, organism-based; parameters: time 0 - last, dose 1 mg/kg, route intravenous; settings: plasma
[22] = Half life in Sprague-Dawley rat at 1 mg/kg, iv; assay type: ADME, organism-based; parameters: dose 1 mg/kg, route intravenous; settings: in vivo
[23] = Volume of distribution at steady state in Sprague-Dawley rat at 1 mg/kg, iv; assay type: ADME, organism-based; parameters: dose 1 mg/kg, route intravenous; settings: in vivo, read-out: Vdss
[24] = Oral bioavailability in Sprague-Dawley rat at 5 mg/kg; assay type: ADME, organism-based; settings: in vivo
[25] = Clearance in Sprague-Dawley rat at 1 mg/kg, iv; assay type: ADME, organism-based; parameters: dose 1 mg/kg, route intravenous; settings: in vivo
[26] = Clearance in cynomolgus monkey at 1 mg/kg, iv; assay type: ADME, organism-based, Macaca fascicularis; parameters: dose 1 mg/kg, route intravenous; settings: in vivo
[27] = AUClast in Sprague-Dawley rat at 100 mg/kg, po; assay type: ADME, organism-based; parameters: time 0 - last, dose 100 mg/kg, route oral; settings: plasma
[28] = Tmax in cynomolgus monkey at 5 mg/kg, po; assay type: ADME, organism-based, Macaca fascicularis; parameters: dose 5 mg/kg, route oral; settings: in vivo
[29] = Half life in cynomolgus monkey at 1 mg/kg, iv; assay type: ADME, organism-based, Macaca fascicularis; parameters: dose 1 mg/kg, route intravenous; settings: in vivo
[30] = Cmax in Sprague-Dawley rat at 100 mg/kg, po; assay type: ADME, organism-based; parameters: dose 100 mg/kg, route oral; settings: in vivo
[31] = Oral bioavailability in cynomolgus monkey at 5 mg/kg; assay type: ADME, organism-based, Macaca fascicularis; settings: in vivo
[32] = Plasma concentration in Sprague-Dawley rat […] at 100 mg/kg, po after 4 hrs; assay type: ADME, organism-based; parameters: dose 100 mg/kg, route oral
[33] = AUClast in cynomolgus monkey at 1 mg/kg, iv; assay type: ADME, organism-based, Macaca fascicularis; parameters: dose 1 mg/kg, route intravenous, time 0 - last; settings: plasma
[34] = AUClast in cynomolgus monkey at 5 mg/kg, po; assay type: ADME, organism-based, Macaca fascicularis; parameters: time 0 - last, dose 5 mg/kg, route oral; settings: plasma
[35] = Volume of distribution at steady state in cynomolgus monkey at 1 mg/kg, iv; assay type: ADME, organism-based, Macaca fascicularis; parameters: dose 1 mg/kg, route intravenous; settings: in vivo, read-out: Vdss
[36] = Tmax in Sprague-Dawley rat at 100 mg/kg, po; assay type: ADME, organism-based; parameters: dose 100 mg/kg, route oral; settings: in vivo
[37] = Cmax in cynomolgus monkey at 5 mg/kg, po; assay type: ADME, organism-based, Macaca fascicularis; parameters: dose 5 mg/kg, route oral; settings: in vivo

EC50 [1]: 0.05 nM
EC50 [2]: 0.009 nM
EC50 [3]: 0.009 nM
EC50 [4]: 0.079 nM
SMILES: COC(=O)N[C@@H](C(=O)N1CCC[C@H]1c1ncc(-c2ccc(-c3ccc(-c4cnc([C@@H]5CCCN5C(=O)[C@H](NC(=O)OC)c5ccccc5)[nH]4)cc3)cc2)[nH]1)c1ccccc1

half-life [5]: 1.9 h
concentration at 4 h [6]: 8.4 ng/mL
EC50 [3]: 0.095 nM
concentration at 4 h [7]: 4 ng/mL
bioavailability [8]: 1.2%
clearance [9]: 17.7 mL/min/kg
Tmax [10]: 0.67 h
AUC(0-t) [11]: 109 ng·h/mL
Vd [12]: 1.39 L/kg
AUC(0-t) [13]: 2060 ng·h/mL
EC50 [4]: 38 nM
Cmax [14]: 41.5 ng/mL
SMILES: COC(=O)N[C@@H](C(=O)N1CCC[C@H]1c1ncc(-c2ccc(N3CCC(c4cnc([C@@H]5CCCN5C(=O)[C@H](NC(=O)OC)c5ccccc5)[nH]4)CC3)c(F)c2)[nH]1)c1ccccc1

EC50 [3]: 0.033 nM
EC50 [4]: 14 nM
SMILES: COC(=O)N[C@@H](C(=O)N1CCC[C@H]1c1ncc(-c2cc(F)c(N3CCC(c4cnc([C@@H]5CCCN5C(=O)[C@H](NC(=O)OC)c5ccccc5)[nH]4)CC3)c(F)c2)[nH]1)c1ccccc1

solubility [15]: 87.5 µg/mL (≈ 112 µM)
EC50 [3]: 0.054 nM
EC50 [4]: 3.8 nM
SMILES: COC(=O)N[C@H](C(=O)N1CCC[C@H]1c1ncc(-c2cc(F)c(N3CCC(c4cnc([C@@H]5CCCN5C(=O)[C@@H](NC(=O)OC)C(C)C)[nH]4)CC3)c(F)c2)[nH]1)C(C)C

EC50 [3]: > 3.7 nM
EC50 [4]: > 100 nM
SMILES: COC(=O)N[C@@H](C(=O)N1CCC[C@H]1c1ncc(-c2cc(F)c(N3CCC(c4cnc([C@@H]5CCCN5C(=O)[C@H](NC(=O)OC)C(C)C)[nH]4)CC3)c(F)c2)[nH]1)C(C)C

EC50 [3]: 0.081 nM
EC50 [4]: > 100 nM
SMILES: COC(=O)N[C@H](C(=O)N1CCC[C@H]1c1ncc(-c2cc(F)c(N3CCC(C)(c4cnc([C@@H]5CCCN5C(=O)[C@@H](NC(=O)OC)C(C)C)[nH]4)CC3)c(F)c2)[nH]1)C(C)C

EC50 [3]: 0.061 nM
EC50 [4]: 5.2 nM
SMILES: COC(=O)N[C@@H](C(=O)N1CCC[C@H]1c1ncc(-c2ccc([C@H]3CC[C@H](c4cnc([C@@H]5CCCN5C(=O)[C@H](NC(=O)OC)c5ccccc5)[nH]4)CC3)cc2)[nH]1)c1ccccc1

solubility [15]: 66.3 µg/mL (≈ 89 µM)
AUC(0-t) [16]: 1540 ng·h/mL
Cmax [17]: 554 ng/mL
concentration at 4 h [18]: 108 ng/mL
EC50 [3]: 0.05 nM
Tmax [19]: 0.67 h
EC50 [4]: 2 nM
concentration at 4 h [20]: 665 ng/mL
AUC(0-t) [21]: 706 ng·h/mL
half-life [22]: 1.33 h
Vd [23]: 1.53 L/kg
bioavailability [24]: 44.2%
clearance [25]: 23.7 mL/min/kg
SMILES: COC(=O)N[C@H](C(=O)N1CCC[C@H]1c1ncc(-c2ccc([C@H]3CC[C@H](c4cnc([C@@H]5CCCN5C(=O)[C@@H](NC(=O)OC)C(C)C)[nH]4)CC3)cc2)[nH]1)C(C)C

EC50 [3]: 1.3 nM
EC50 [4]: > 100 nM
SMILES: COC(=O)N[C@H](C(=O)N1CCC[C@H]1c1ncc(-c2ccc([C@H]3CC[C@](C)(c4cnc([C@@H]5CCCN5C(=O)[C@@H](NC(=O)OC)C(C)C)[nH]4)CC3)cc2)[nH]1)C(C)C

clearance [26]: 6.5 mL/min/kg
solubility [15]: 45 µg/mL (≈ 58.4 µM)
AUC(0-t) [16]: 6580 ng·h/mL
AUC(0-t) [27]: 242000 ng·h/mL
Tmax [28]: 4 h
Cmax [17]: 980 ng/mL
concentration at 4 h [18]: 653 ng/mL
half-life [29]: 1.24 h
Cmax [30]: 19100 ng/mL
EC50 [3]: 0.06 nM
bioavailability [31]: 61.1%
concentration at 4 h [32]: 15800 ng/mL
AUC(0-t) [33]: 2570 ng·h/mL
AUC(0-t) [34]: 7930 ng·h/mL
Vd [35]: 0.64 L/kg
Tmax [36]: 2 h
Tmax [19]: 1.17 h
EC50 [4]: 1.4 nM
concentration at 4 h [20]: 2590 ng/mL
AUC(0-t) [21]: 1050 ng·h/mL
half-life [22]: 1.2 h
Vd [23]: 1.31 L/kg
Cmax [37]: 1400 ng/mL
bioavailability [24]: 124%
clearance [25]: 15.7 mL/min/kg
SMILES: COC(=O)N[C@H](C(=O)N1CCC[C@H]1c1ncc(-c2ccc(C34CCC(c5cnc([C@@H]6CCCN6C(=O)[C@@H](NC(=O)OC)C(C)C)[nH]5)(CC3)CC4)cc2)[nH]1)C(C)C

EC50 [3]: 0.09 nM
EC50 [4]: 34 nM
SMILES: COC(=O)N[C@H](C(=O)N1CCC[C@H]1c1ncc(-c2cc(F)c(N3CCC(c4cnc([C@@H]5CCCCN5C(=O)[C@@H](NC(=O)OC)C(C)C)[nH]4)CC3)c(F)c2)[nH]1)C(C)C

EC50 [3]: 0.05 nM
EC50 [4]: 38 nM
SMILES: COC(=O)N[C@@H](C(=O)N1CCC[C@H]1c1ncc(-c2cc(F)c(N3CCC(c4cnc([C@@H]5COCCN5C(=O)[C@H](NC(=O)OC)c5ccccc5)[nH]4)CC3)c(F)c2)[nH]1)c1ccccc1

EC50 [3]: 0.54 nM
EC50 [4]: > 100 nM
SMILES: COC(=O)N[C@H](C(=O)N(C)[C@@H](C)c1ncc(C2CCN(c3c(F)cc(-c4cnc([C@@H]5CCCN5C(=O)[C@@H](NC(=O)OC)C(C)C)[nH]4)cc3F)CC2)[nH]1)C(C)C
